According to PubChem BioAssay AID248 (DTP/NCI, 2004):
Where “and” joins values, the source holds several entries; their conditions need not be identical. Equal values may be shown once. Inconclusive results and toxic doses are left out. Rule as the data show it: active = T/C of 150% or more; inactive = T/C below 125%.

Tested on: L1210 leukemia ip in BDF1 mice, survival T/C
Assay: NCI In Vivo Anticancer Drug Screen. Data for tumor model L1210 Leukemia (intraperitoneal) in B6D2F1 (BDF1) mice
Conditions: endpoint: mean survival time, higher = longer survival
Method in brief: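 In this screen, tumor-bearing mice given compound are compared to those given vehicle, and their survival values are reported as a treated-to-control quotient.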

[1] = dose: 50.0 mg/kg/injection, schedule: Q01DX001 (ip), vehicle: saline
[2] = dose: 100.0 mg/kg/injection, schedule: Q01DX001 (ip), vehicle: saline
[3] = dose: 200.0 mg/kg/injection, schedule: Q01DX001 (ip), vehicle: saline
[4] = dose: 100.0 mg/kg/injection, schedule: Q01DX001 (ip), vehicle: saline with Tween-80
[5] = dose: 100.0 mg/kg/injection, schedule: Q01DX009 (ip), vehicle: saline with Tween-80
[6] = dose: 100.0 mg/kg/injection, schedule: Q04DX002 (ip), vehicle: saline with Tween-80
[7] = dose: 200.0 mg/kg/injection, schedule: Q01DX001 (ip), vehicle: saline with Tween-80
[8] = dose: 200.0 mg/kg/injection, schedule: Q01DX009 (ip), vehicle: saline with Tween-80
[9] = dose: 200.0 mg/kg/injection, schedule: Q04DX002 (ip), vehicle: saline with Tween-80
[10] = dose: 400.0 mg/kg/injection, schedule: Q01DX001 (ip), vehicle: saline with Tween-80
[11] = dose: 400.0 mg/kg/injection, schedule: Q01DX009 (ip), vehicle: saline with Tween-80
[12] = dose: 400.0 mg/kg/injection, schedule: Q04DX002 (ip), vehicle: saline with Tween-80
[13] = dose: 100.0 mg/kg/injection, schedule: Q01DX009 (ip), vehicle: Klucel (hydroxypropylcellulose) (HPC)
[14] = dose: 100.0 mg/kg/injection, schedule: Q04DX003 (ip), vehicle: Klucel (hydroxypropylcellulose) (HPC)
[15] = dose: 200.0 mg/kg/injection, schedule: Q01DX009 (ip), vehicle: Klucel (hydroxypropylcellulose) (HPC)
[16] = dose: 200.0 mg/kg/injection, schedule: Q04DX003 (ip), vehicle: Klucel (hydroxypropylcellulose) (HPC)
[17] = dose: 400.0 mg/kg/injection, schedule: Q01DX009 (ip), vehicle: Klucel (hydroxypropylcellulose) (HPC)
[18] = dose: 400.0 mg/kg/injection, schedule: Q04DX003 (ip), vehicle: Klucel (hydroxypropylcellulose) (HPC)
[19] = dose: 400.0 mg/kg/injection, schedule: Q01DX001 (ip), vehicle: saline
[20] = dose: 100.0 mg/kg/injection, schedule: Q04DX003 (ip), vehicle: saline
[21] = dose: 200.0 mg/kg/injection, schedule: Q04DX003 (ip), vehicle: saline
[22] = dose: 400.0 mg/kg/injection, schedule: Q04DX003 (ip), vehicle: saline
[23] = dose: 100.0 mg/kg/injection, schedule: Q04DX003 (ip), vehicle: saline with Tween-80
[24] = dose: 200.0 mg/kg/injection, schedule: Q04DX003 (ip), vehicle: saline with Tween-80
[25] = dose: 400.0 mg/kg/injection, schedule: Q04DX003 (ip), vehicle: saline with Tween-80

Measured: T/C

O=C(CCCC(=O)NNC(=S)NC1CCCCC1)NNC(=S)NC1CCCCC1
inactive: [1] 96 % of control | [2] 96 % of control | [3] 93 % of control

COc1cc(C(=O)NNC(=O)c2ccc(Cl)c(Cl)c2)cc(OC)c1OC
inactive: [4] 93 % of control | [5] 100 % of control and 89 % of control | [6] 93 % of control and 104 % of control | [7] 97 % of control | [8] 101 % of control and 86 % of control | [9] 101 % of control and 110 % of control | [10] 90 % of control | [11] 92 % of control and 97 % of control | [12] 102 % of control and 87 % of control

CC(=O)CC(=O)NC1CCCCCC1
inactive: [13] 92 % of control | [14] 100 % of control | [15] 103 % of control | [16] 100 % of control | [17] 97 % of control | [18] 96 % of control

COS(=O)(=O)c1ccc([N+](=O)[O-])cc1[N+](=O)[O-]
inactive: [2] 100 % of control | [3] 94 % of control | [19] 91 % of control

O=C(O)C(Cc1ccccc1)Cc1ccccc1
inactive: [2] 97 % of control | [3] 103 % of control | [19] 109 % of control

O=c1[nH]c(=O)n2ncnc2[nH]1
inactive: [20] 100 % of control | [21] 100 % of control | [22] 96 % of control

CCc1ccccc1NC(=O)Nc1cc(C)on1
inactive: [13] 103 % of control | [15] 110 % of control | [17] 107 % of control

CN(C)C(=S)Oc1ccc(Cl)cc1S(=O)(=O)F
inactive: [14] 106 % of control | [16] 101 % of control | [18] 102 % of control

OCC(O)COCc1ccccc1 (stereo not drawn)
inactive: [23] 109 % of control | [24] 104 % of control | [25] 106 % of control

COc1cc(C)ccc1C(=O)CCCC(=O)O
inactive: dose: 100.0 mg/kg/injection, schedule: Q01DX001 (ip), vehicle: Klucel (hydroxypropylcellulose) (HPC) 106 % of control | [14] 105 % of control | dose: 200.0 mg/kg/injection, schedule: Q01DX001 (ip), vehicle: Klucel (hydroxypropylcellulose) (HPC) 98 % of control | [15] 97 % of control | [16] 102 % of control | dose: 400.0 mg/kg/injection, schedule: Q01DX001 (ip), vehicle: Klucel (hydroxypropylcellulose) (HPC) 98 % of control | [17] 98 % of control | [18] 103 % of control

O=C(O)CC(CO)C(c1ccccc1)c1ccccc1 (stereo not drawn)
inactive: dose: 100.0 mg/kg/injection, schedule: Q04DX002 (ip), vehicle: Klucel (hydroxypropylcellulose) (HPC) 97 % of control | dose: 200.0 mg/kg/injection, schedule: Q04DX002 (ip), vehicle: Klucel (hydroxypropylcellulose) (HPC) 97 % of control

CCOC(=O)c1cc(=O)c2c(ccc3cc(OC)ccc32)[nH]1
inactive: dose: 6.25 mg/kg/injection, schedule: Q04DX002 (ip), vehicle: carboxymethylcellulose (CMC) 101 % of control and 89 % of control | dose: 12.5 mg/kg/injection, schedule: Q01DX001 (ip), vehicle: carboxymethylcellulose (CMC) 105 % of control | dose: 12.5 mg/kg/injection, schedule: Q01DX009 (ip), vehicle: carboxymethylcellulose (CMC) 94 % of control and 105 % of control | dose: 12.5 mg/kg/injection, schedule: Q04DX003 (ip), vehicle: carboxymethylcellulose (CMC) 100 % of control | dose: 25.0 mg/kg/injection, schedule: Q01DX001 (ip), vehicle: carboxymethylcellulose (CMC) 105 % of control | dose: 25.0 mg/kg/injection, schedule: Q01DX009 (ip), vehicle: carboxymethylcellulose (CMC) 97 % of control and 98 % of control | dose: 25.0 mg/kg/injection, schedule: Q04DX003 (ip), vehicle: carboxymethylcellulose (CMC) 93 % of control | dose: 50.0 mg/kg/injection, schedule: Q01DX001 (ip), vehicle: carboxymethylcellulose (CMC) 94 % of control | dose: 50.0 mg/kg/injection, schedule: Q01DX009 (ip), vehicle: carboxymethylcellulose (CMC) 94 % of control and 88 % of control | dose: 50.0 mg/kg/injection, schedule: Q04DX003 (ip), vehicle: carboxymethylcellulose (CMC) 100 % of control

O=C1C(c2ccccc2)=Nc2ccccc21
inactive: [6] 88 % of control | [9] 88 % of control | [12] 90 % of control

CCCCCCCCCCCC(=O)NC(=S)Nc1cccc(Cl)c1
inactive: [4] 93 % of control | [5] 107 % of control and 89 % of control | [6] 122 % of control and 91 % of control | [7] 93 % of control | [8] 96 % of control and 86 % of control | [9] 97 % of control and 119 % of control | [10] 90 % of control | [12] 105 % of control and 92 % of control

[O-]/[N+](=N/O)c1ccc(Cl)cc1
inactive: dose: 25.0 mg/kg/injection, schedule: Q01DX001 (ip), vehicle: saline with Tween-80 96 % of control | dose: 25.0 mg/kg/injection, schedule: Q01DX009 (ip), vehicle: saline with Tween-80 100 % of control | dose: 25.0 mg/kg/injection, schedule: Q04DX003 (ip), vehicle: saline with Tween-80 103 % of control | dose: 50.0 mg/kg/injection, schedule: Q01DX001 (ip), vehicle: saline with Tween-80 92 % of control | dose: 50.0 mg/kg/injection, schedule: Q01DX009 (ip), vehicle: saline with Tween-80 94 % of control | dose: 50.0 mg/kg/injection, schedule: Q04DX003 (ip), vehicle: saline with Tween-80 94 % of control | [4] 100 % of control | [23] 92 % of control

N#Cc1ccc(CCc2ccc(Cl)cc2)cc1
inactive: [1] 94 % of control | [2] 95 % of control | [3] 101 % of control | [19] 92 % of control

Cc1cc(N(CCCl)CCCl)ccc1C=Nc1cccc2ncccc12
inactive: dose: 100.0 mg/kg/injection, schedule: Q01DX001 (ip), vehicle: other 95 % of control | dose: 200.0 mg/kg/injection, schedule: Q01DX001 (ip), vehicle: other 97 % of control | dose: 400.0 mg/kg/injection, schedule: Q01DX001 (ip), vehicle: other 93 % of control

CCN(C(=O)c1ccc2c3c(ccc(C(=O)N(CC)c4ccccc4)c13)CC2)c1ccccc1
inactive: [2] 104 % of control | [3] 104 % of control | [19] 95 % of control

NNC(=O)[C@H]1CC[C@H]1C(=O)NN
inactive: dose: 50.0 mg/kg/injection, schedule: Q01DX009 (ip), vehicle: saline 102 % of control | dose: 100.0 mg/kg/injection, schedule: Q01DX009 (ip), vehicle: saline 109 % of control | [20] 103 % of control | dose: 130.0 mg/kg/injection, schedule: Q01DX009 (ip), vehicle: saline 106 % of control | dose: 200.0 mg/kg/injection, schedule: Q01DX009 (ip), vehicle: saline 106 % of control | [21] 104 % of control | dose: 264.0 mg/kg/injection, schedule: Q04DX003 (ip), vehicle: saline 105 % of control and 118 % of control and 91 % of control

CCN(C(=O)C(F)(F)F)C1(c2ccc(Cl)cc2)CCCCC1SSSC1CCCCC1(c1ccc(Cl)cc1)N(CC)C(=O)C(F)(F)F (stereo not drawn)
inactive: [5] 106 % of control | [23] 87 % of control | [8] 98 % of control | [24] 89 % of control | [11] 108 % of control | [25] 89 % of control

CC/C(=N/N=C(N)N)c1ccc(F)cc1
inactive: dose: 15.0 mg/kg/injection, schedule: Q01DX Z (oral), vehicle: carboxymethylcellulose (CMC) 104 % of control | dose: 30.0 mg/kg/injection, schedule: Q01DX Z (oral), vehicle: carboxymethylcellulose (CMC) 101 % of control | dose: 60.0 mg/kg/injection, schedule: Q01DX Z (oral), vehicle: carboxymethylcellulose (CMC) 98 % of control

CC(=O)NC(C(=O)O)C(C)C(=O)O (stereo not drawn)
inactive: [20] 90 % of control | [21] 93 % of control | [22] 92 % of control

NC(=O)c1nc2ccccc2nc1C(N)=O
inactive: [13] 92 % of control | [14] 92 % of control | [15] 92 % of control | [16] 92 % of control | [17] 96 % of control | [18] 90 % of control

Cc1cccc(C)c1NC(=S)N1CCOCC1
inactive: dose: 100.0 mg/kg/injection, schedule: Q01DX009 (ip), vehicle: other 106 % of control | dose: 200.0 mg/kg/injection, schedule: Q01DX009 (ip), vehicle: other 116 % of control | dose: 400.0 mg/kg/injection, schedule: Q01DX009 (ip), vehicle: other 122 % of control
